Each structure is given as a SMILES string.

In this experiment the target is Adenosine kinase (Homo sapiens, UniProt P55263). The experiment is described as follows: Inhibitory activity against human adenosine kinase expressed in Escherichia coli.
Adenosine kinase, sequence (P55263 whole entry): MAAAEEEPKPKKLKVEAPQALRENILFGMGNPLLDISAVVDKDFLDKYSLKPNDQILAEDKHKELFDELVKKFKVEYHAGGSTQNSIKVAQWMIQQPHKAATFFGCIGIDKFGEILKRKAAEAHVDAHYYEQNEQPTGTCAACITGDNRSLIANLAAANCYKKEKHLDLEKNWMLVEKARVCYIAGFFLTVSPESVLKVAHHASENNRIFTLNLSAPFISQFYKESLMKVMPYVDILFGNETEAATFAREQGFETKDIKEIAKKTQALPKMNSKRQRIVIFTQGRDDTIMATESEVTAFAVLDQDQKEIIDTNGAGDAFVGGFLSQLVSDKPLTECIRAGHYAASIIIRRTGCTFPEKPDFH
With `O=C(Nc1cccc(-c2nc3c(N4CC5CCN(Cc6ccccc6)C5C4)ncnc3o2)c1)C1CC1` (configuration not stated), the IC50 was found to be 60 nM.
Next, `c1ccc(CN2CCC3CN(c4ncnc5oc(-c6cccnc6)nc45)CC32)cc1` (configuration not stated): 130 nM.
Regarding `c1ccc(CCCNc2ncnc3oc(-c4ccccc4)nc23)cc1`, the IC50 was 230 nM. This IC50 is about 1.8-fold higher than that of the compound before.
For the compound `O=C(Nc1ccc(-c2nc3c(N4CC5CCN(Cc6ccccc6)C5C4)ncnc3o2)cc1)C1CC1` (configuration not stated), 30 nM corresponded to half-maximal inhibition (IC50).
Turning to `Nc1ccc(-c2nc3c(N4CC5CCN(Cc6ccccc6)C5C4)ncnc3o2)cc1` (configuration not stated), the IC50 was found to be 50 nM.
`CCCCNc1ncnc2oc(-c3ccccc3)nc12`: the IC50 was greater than 10000 nM.
The compound `Fc1ccc(CN2CCCN(c3ncnc4oc(-c5ccccc5)nc34)CC2)cc1` had an IC50 greater than 1000 nM.
Consider `c1ccc(CN2C[C@@H]3CCCN(c4ncnc5oc(-c6ccccc6)nc45)[C@@H]3C2)cc1`, for which the IC50 was found to be 1000 nM.
In turn, `O=C(Nc1cccc(-c2nc3c(N4CC5CCN(Cc6ccccc6)C5C4)ncnc3o2)c1)c1ccc(C(F)(F)F)cc1` (configuration not stated) had an IC50 greater than 10000 nM.
In turn, `O=C(Cc1ccccc1)Nc1ccc(-c2nc3c(N4CC5CCN(Cc6ccccc6)C5C4)ncnc3o2)cc1` (configuration not stated) registered an IC50 of 70 nM. That is a double-digit nanomolar value.
Compound `O=C(Nc1ccc(-c2nc3c(N4CC5CCN(Cc6ccccc6)C5C4)ncnc3o2)cc1)c1ccc(C(F)(F)F)cc1` (configuration not stated) returned an IC50 greater than 10000 nM.
In turn, `c1ccc(CN2CC3CN(c4ncnc5oc(-c6ccccc6)nc45)CC3C2)cc1` (configuration not stated) registered an IC50 greater than 10000 nM.
`O=C(Nc1ccc(-c2nc3c(N4CC5CCN(Cc6ccccc6)C5C4)ncnc3o2)cc1)c1ccc(F)cc1` (configuration not stated) had an IC50 of 130 nM. This lies in the sub-micromolar range.
Next, `CN(CCCNc1ncnc2oc(-c3ccccc3)nc12)c1ccccc1`: 270 nM; `O=C(Nc1cccc(-c2nc3c(N4CC5CCN(Cc6ccccc6)C5C4)ncnc3o2)c1)c1ccccc1` (configuration not stated): 90 nM.
In the case of `c1ccc(CN2CCN(c3ncnc4oc(-c5ccccc5)nc34)CC2)cc1`, the IC50 is greater than 10000 nM.
As for `O=C(Nc1cccc(-c2nc3c(N4CC5CCN(Cc6ccccc6)C5C4)ncnc3o2)c1)c1ccc(F)cc1` (configuration not stated), the IC50 was 200 nM.
As for `c1ccc(CN2CCC3CN(c4ncnc5oc(-c6ccncc6)nc45)CC32)cc1` (configuration not stated), the figure is greater than 1000 nM; as for `Fc1ccc(-c2ccc(-c3nc4c(N5CC6CCN(Cc7ccccc7)C6C5)ncnc4o3)cc2)cc1` (configuration not stated), greater than 10000 nM.
In the case of `O=C(Cc1ccccc1)Nc1cccc(-c2nc3c(N4CC5CCN(Cc6ccccc6)C5C4)ncnc3o2)c1` (configuration not stated), the IC50 is 210 nM.
Take `Brc1cccc(-c2nc3c(N4CC5CCN(Cc6ccccc6)C5C4)ncnc3o2)c1` (configuration not stated): half-maximal inhibition (IC50) required 260 nM.
`CN(C)c1ccc(-c2nc3c(N4CC5CCN(Cc6ccccc6)C5C4)ncnc3o2)cn1` (configuration not stated) gave an IC50 of 10 nM.
Next, `c1ccc(CN2CC[C@@H]3CN(c4ncnc5oc(-c6ccccc6)nc45)C[C@@H]32)cc1`: 120 nM; `c1ccc(CN2CCC3CN(c4ncnc5oc(-c6ccccc6)nc45)CC32)cc1` (configuration not stated): 200 nM; `Nc1ncnc2nc(-c3ccc(N4CCOCC4)nc3)cc(-c3cccc(Br)c3)c12`: 10 nM.
Take `COCCNc1ncnc2oc(-c3ccccc3)nc12`: the IC50 is greater than 10000 nM.
On to `O=C(Nc1ccc(-c2nc3c(N4CC5CCN(Cc6ccccc6)C5C4)ncnc3o2)cc1)c1ccccc1` (configuration not stated), for which half-maximal inhibition (IC50) was put at 70 nM.
`COCC(=O)Nc1ccc(-c2nc3c(N4CC5CCN(Cc6ccccc6)C5C4)ncnc3o2)cc1` (configuration not stated) returned an IC50 of 40 nM.
Regarding `Clc1ccc(-c2nc3c(N4CC5CCN(Cc6ccccc6)C5C4)ncnc3o2)cn1` (configuration not stated), the midpoint of inhibition, the IC50, lay at 70 nM.
As for `COCC(=O)Nc1cccc(-c2nc3c(N4CC5CCN(Cc6ccccc6)C5C4)ncnc3o2)c1` (configuration not stated), half-maximal inhibition (IC50) required 40 nM.
For the compound `Brc1ccc(-c2nc3c(N4CC5CCN(Cc6ccccc6)C5C4)ncnc3o2)cc1` (configuration not stated), the IC50 amounted to 240 nM.
The compound `c1ccc(CN2CCC3CN(c4ncnc5oc(-c6ccc(-c7cccs7)cc6)nc45)CC32)cc1` (configuration not stated) had an IC50 of 90 nM. Compared with the last compound, the IC50 is about 2.7-fold lower.

For the origin of these results see ChEMBL document CHEMBL1147529, “Discovery and optimization of 2-aryl oxazolo-pyrimidines as adenosine kinase inhibitors using liquid phase parallel synthesis” (Bioorg Med Chem Lett, 2004).
